Tests used:
[1] = sealed container, 40° C. and 75% relative humidity, 8 weeks
Method: (§1) X-Ray Powder Diffraction Characterisation: X-ray powder diffraction patterns for the samples were acquired on a Bruker D8 diffractometer using CuKα radiation (40 kV, 40 mA), θ-2θ goniometer, V4 receiving slits, a Ge monochromator and a Lynxeye detector. The instrument is performance checked using a certified Corundum standard (NIST 1976). The data were collected over an angular range of 4° to 30° 2Θ using a step size of 0.05° 2Θ and a step time of 4 seconds. Samples were run under ambient conditions as flat plate specimens using powder as received. Approximately, 35 mg of the sample was gently packed into a cavity cut into polished, zero background (510) silicon wafer. The software used for data collection and analysis was Diffrac Plus XRD Commander and Diffrac Plus EVA respectively.
A study was carried out to examine the physical stability of the 1:2 cannabigerol L-proline cocrystal with respect to solid form conversion or deliquescence over time under accelerated conditions. 1:2 Cannabigerol L-proline cocrystal (50 mg) was placed in a sealed container at 40° C. and 75% relative humidity and stored under these conditions for 8 weeks. […] The sample was analysed by XRPD to observe any potential form changes.

[2] = oven at 100° C. for 20 hours
Method: as §1

[3] = Solid-state stability of cannabigerol Form I at 50° C.; type: physicochemical; details: oven at 50° C. for 10 minutes; for solid form by XRPD after heating and cooling: then allowed to cool
Method: A study was carried out to assess the stability of cannabigerol Form I under conditions of temperatures commonly reached during processing and storage. Cannabigerol Form I (50 mg) was placed in an oven at 50° C. for 10 minutes. […] The sample was allowed to cool after which time a solid was produced.

Row | SMILES | physical state / deliquescence after storage [1] | solid form conversion by XRPD after storage ([1]; XRPD) | solid form conversion by XRPD after high temperature storage [2] | physical state after heating [3] | solid form by XRPD after heating and cooling [3] | solid form by XRPD after heating and cooling ([3]; listed as cannabigerol Form I) | physical state after heating ([3]; listed as cannabigerol Form I)
1 | CCCCCc1cc(O)c(C/C=C(\C)CCC=C(C)C)c(O)c1.O=C(O)[C@@H]1CCCN1.O=C(O)[C@@H]1CCCN1 [1:2 cannabigerol L-proline cocrystal] | completely solid with no signs of deliquescence | retained its original crystalline form | retained its original crystalline form | – | – | – | –
2 | CCCCCc1cc(O)c(C/C=C(\C)CCC=C(C)C)c(O)c1 [Cannabigerol Form I, 2-[(2E)-3,7-dimethylocta-2,6-dienyl]-5-pentyl-benzene-1,3-diol] | – | – | – | melted to produce an oil | undergone a polymorph transition to form a new polymorphic form (designated Form III) | undergone a form conversion to a previously unidentified polymorph (designated Form III) | became a liquid

Source: patent US12643853B2, “Cannabigerol proline cocrystals” (Manoira Corporation, priority 2019, dated 2026)
